Consider 17 compounds from patent US11312727B1, “Macrocyclic flu endonuclease inhibitors” (Janssen BioPharma, Inc., priority 2018, dated 2022).

In general, EC50 refers to the concentration needed to bring the measured effect to its halfway point. One may read the CC50 as the concentration giving 50% cytotoxicity. A lower CC50 goes with harm at low concentration.

Data set [1] has as its system Influenza strain A549 A/WSN/33 (H1N1). As to the kind of experiment: microbe, parasite or virus in culture. In kind it is cell-based. Conditions: Influenza A virus, A549, 20 h, A549 cells, influenza A/WSN/33 (H1N1), 20 hours incubation; read-out: A549_A(H1N1) EC50.
The nature of the next data set: in vitro. Conditions: human, CC50, uninfected A549 cells, CellTiter-Glo. (In general: In ATP-based viability assays light output follows the ATP content of the culture.)

`C[C@H]1C/C=C/COc2c(F)cccc2[C@H](c2ccccc2)N2CN1C(=O)c1c(O)c(=O)ccn12` (single isomer, unassigned) [Compound 100BA, (2*S,9*S,*E)-33-fluoro-15-hydroxy-9-methyl-2-phenyl-12,13,14,16-tetrahydro-11H-4-oxa-1(1,3)-pyrido[2,1-f][1,2,4]triazina-3(1,2)-benzenacyclononaphan-6-ene-14,16-dione]: in data set [1], the 50% effective concentration (EC50) turned out to be 5210 nM. Moreover, the CC50 in “in vitro” is 40200 nM.

Regarding `CC[C@H]1CCCOc2c(ccc(F)c2F)[C@@H](c2ccccc2)N2CN1C(=O)c1c(O)c(=O)ccn12` (single isomer, unassigned) [Compound 164A, (9*S,18*R)-9-ethyl-3,4-difluoro-12-hydroxy-18-phenyl-6,7,8,9-tetrahydro-18H-10,17-methanobenzo[b]pyrido[1,2-f][1]oxa[5,6,9]triazacyclotridecine-11,13-dione], the EC50 in data set [1] was above 50 nM. The same compound gave a CC50 in the data set “in vitro” above 100 nM.

For the compound `O=C1c2c(O)c(=O)ccn2N2CN1CC/C=C\COc1cccc3c1[C@H]2c1ccccc1SC3` (single isomer, unassigned) [Compound 37B, (1*S,13Z)-7-hydroxy-16-oxa-23-thia-2,3,10-triazahexacyclo[15.12.1.12,10.03,8.021,30.024,29]hentriaconta-4,7,13,17,19,21(30),24(29),25,27-nonaene-6,9-dione], the EC50 in data set [1] was determined as 4 nM. Further, the CC50 in “in vitro” is above 200 nM.

With `CC[C@@H]1/C=C/COc2c(Cl)cccc2[C@H](c2ccccc2)N2CN1C(=O)c1c(O)c(=O)ccn12` (single isomer, unassigned) [Compound 98AB, (9*R,18*S,E)-4-chloro-9-ethyl-12-hydroxy-18-phenyl-6,9-dihydro-18H-10,17-methanobenzo[b]pyrido[1,2-f][1]oxa[5,6,9]triazacyclotridecine-11,13-dione], the EC50 in data set [1] was 2.2 nM. In “in vitro”, this compound came in with a CC50 above 200 nM.

For `O=C1c2c(O)c(=O)ccn2N2CN1C1(/C=C/COc3c(Cl)cccc3[C@H]2c2ccccc2)CC1` (single isomer, unassigned) [Compound 96A, (18′*R,E)-4′-chloro-12′-hydroxy-18′-phenyl-6′H,18′H-spiro[cyclopropane-1,9′-[10,17]methanobenzo[b]pyrido[1,2-f][1]oxa[5,6,9]triazacyclotridecine]-11′,13′-dione], the EC50 in data set [1] stood at 1.9 nM. Besides, the CC50 in “in vitro” is above 200 nM.

Take `O=C1c2c(O)c(=O)ccn2N2CN1CCCCCc1ccccc1[C@@H]2c1ccccn1` (single isomer, unassigned) [Compound 40A, (17*R)-4-hydroxy-16-(pyridin-2-yl)-7,8,9,10,11,16-hexahydro-6,17-methanobenzo[k]pyrido[1,2-b][1,2,5]triazacyclotridecine-3,5-dione]: the EC50 in data set [1] was determined as 30 nM. For the same compound, the CC50 in “in vitro” is above 2000 nM.

For `O=C1c2c(O)c(=O)ccn2N2CN1CC/C=C\COc1cccc3c1[C@H]2c1ccccc1CC3` (single isomer, unassigned) [Compound 28A], the EC50 in data set [1] was determined as 5950 nM. Besides, the CC50 in the data set “in vitro” is above 20000 nM.

Consider `O=C1c2c(O)c(=O)ccn2N2CN1CCC=CCc1ccccc1C2c1ccccc1` (stereo not shown) [Compound 1, 4-hydroxy-16-phenyl-7,8,11,16-tetrahydro-6,17-methanobenzo[k]pyrido[1,2-b][1,2,5]triazacyclotridecine-3,5-dione], for which the EC50 in data set [1] was found to be 43 nM. In the data set “in vitro”, the CC50 was above 2000 nM.

`O=C1c2c(O)c(=O)ccn2N2CN1C/C=C\CCOc1ccccc1C2c1ccccc1` (stereo not shown) [Compound 19, (*Z)-15-hydroxy-2-phenyl-12,13,14,16-tetrahydro-11H-4-oxa-1(1,3)-pyrido[2,1-f][1,2,4]triazina-3(1,2)-benzenacyclononaphan-7-ene-14,16-dione]: in data set [1], the EC50 amounted to 260 nM. Besides, the CC50 in the data set “in vitro” was above 2000 nM.

On to `O=C1c2c(O)c(=O)ccn2N2CN1C/C=C\COc1ccccc1C2c1ccccc1` (stereo not shown) [Compound 5], for which the EC50 in data set [1] was determined as 26 nM. Moreover, the CC50 in “in vitro” is above 2000 nM.

Consider `CC[C@H]1/C=C/COc2c(Cl)cccc2[C@H](c2ccccc2)N2CN1C(=O)c1c(O)c(=O)ccn12` (single isomer, unassigned) [Compound 98AA, (9*S,18*S,E)-4-chloro-9-ethyl-12-hydroxy-18-phenyl-6,9-dihydro-18H-10,17-methanobenzo[b]pyrido[1,2-f][1]oxa[5,6,9]triazacyclotridecine-11,13-dione], for which the EC50 in data set [1] is above 500 nM. In the data set “in vitro”, this compound yielded a CC50 above 1000 nM.

With `Cc1c(F)ccc2c1OC/C=C\CN1CN([C@H]2c2ccccc2)n2ccc(=O)c(O)c2C1=O` (single isomer, unassigned) [Compound 133B, (18*S,Z)-3-fluoro-12-hydroxy-4-methyl-18-phenyl-6,9-dihydro-18H-10,17-methanobenzo[b]pyrido[1,2-f][1]oxa[5,6,9]triazacyclotridecine-11,13-dione], the EC50 in data set [1] was above 100 nM. The CC50 in the data set “in vitro” is above 200 nM.

Regarding `O=C1c2c(O)c(=O)ccn2N2CN1[C@H](C(F)F)/C=C/COc1cccc3c1[C@@H]2c1ccccc1SC3` (single isomer, unassigned) [Compound 163BB, (9*S,17a*R,*E)-9-(difluoromethyl)-12-hydroxy-2,6,9,17a-tetrahydro-3,4-(epiprop[1]en[1]yl[3]ylidene)-10,17-methanobenzo[6,7]thiepino[4,5-c]pyrido[1,2-f][1]oxa[5,6,9]triazacyclotridecine-11,13-dione], the EC50 in data set [1] was above 50 nM. The CC50 in the data set “in vitro” is above 100 nM.

For `O=C1c2c(O)c(=O)ccn2N2CN1CCOCCOc1ccccc1[C@@H]2c1ccccc1` (single isomer, unassigned) [Compound 99B, (2*S)-18-hydroxy-2-phenyl-9,12-dioxa-1,15,22-triazatetracyclo[13.7.1.03,8.017,22]tricosa-3,5,7,17,20-pentaene-16,19-dione], the EC50 in data set [1] was determined as 167 nM. Further, the CC50 in “in vitro” was above 1000 nM.

`O=C1c2c(O)c(=O)ccn2N2CN1C1(/C=C/COc3cccc4c3[C@H]2c2ccccc2SC4)CC1` (single isomer, unassigned) [Compound 107B, (17a′*S,*E)-12′-hydroxy-2′,17a′-dihydro-6′H-spiro[cyclopropane-1,9′-[3,4](epiprop[1]en[1]yl[3]ylidene)[10,17]methanobenzo[6,7]thiepino[4,5-c]pyrido[1,2-f][1]oxa[5,6,9]triazacyclotridecine]-11′,13′-dione]: the EC50 in data set [1] is 1 nM. The same compound showed a CC50 in “in vitro” above 100 nM.

For the compound `O=C1c2c(O)c(=O)ccn2N2CN1C1(/C=C/COc3cc(F)c(F)c4c3[C@H]2c2ccccc2SC4)CC1` (single isomer, unassigned) [Compound 108B, (17a′*S,*E)-24′,25′-difluoro-12′-hydroxy-2′,17a′-dihydro-6′H-spiro[cyclopropane-1,9′-[3,4](epiprop[1]en[1]yl[3]ylidene)[10,17]methanobenzo[6,7]thiepino[4,5-c]pyrido[1,2-f][1]oxa[5,6,9]triazacyclotridecine]-11′,13′-dione], the EC50 in data set [1] worked out at 0.2 nM. Besides, the CC50 in “in vitro” is above 50 nM.

Take `O=C1c2c(O)c(=O)ccn2N2CN1C/C=C\COc1ccccc1[C@@H]2c1cccc(F)c1` (single isomer, unassigned) [Compound 63B, (18*S,Z)-18-(3-fluorophenyl)-12-hydroxy-6,9-dihydro-18H-10,17-methanobenzo[b]pyrido[1,2-f][1]oxa[5,6,9]triazacyclotridecine-11,13-dione]: the EC50 in data set [1] was 13 nM. For the same compound, the cytotoxic concentration (CC50) in the data set “in vitro” was above 2000 nM.
